Format in all cases: cell-based
For experiment [1], the system named is DU145 prostate cancer cells. As to the kind of experiment: Anti-proliferative assay (cell-titre luminescent), DU145. The settings on record: Homo sapiens, DU-145; DU145, 72 hours, luminescence. As to the method:
(§1) The ability of compounds 2002, 2009 and 2013-2064 to inhibit the proliferation of cancer cells representative of neuroblastoma, melanoma, prostate cancer, colorectal cancer, non-small cell lung carcinoma, and triple negative breast cancer was assessed. These studies were conducted by contract research (GVK-BIO). Briefly, a pre-determined number of cells as calculated from cell growth assays for each of the cell lines employed were seeded into their respective culture medium (using ATCC culture parameters—http://www.atcc.org) and cultured for 24 h at 37° C. and 5% CO2 in 96-well culture plates. Once attached, each cell line was then exposed to various concentrations of each respective analogue (30, 10, 3, 1, 0.3 and 0.1 μM), cultured for a further 72 hours and exposed to cell-titre luminescent reagent (100 μL/well) for a further 30 minutes). Luminescence was captured using an EnVision multilabel reader and the data for each analogue concentration compared against no treatment control. Cell viability was normalized to control (vehicle alone) and dose-response curves, and half maximal effective concentration (EC50) values were determined using Graph Pad Prism 6 (nonlinear regression sigmoidal dose-response variable slope).

In experiment [2] the test system is PC3 prostate cancer cells. The experiment in a line: Anti-proliferative assay (cell-titre luminescent), PC3. The settings on record: PC3, 72 hours, luminescence. As to the method: as §1
Experiment [3] relates to MDA-MB-231 breast cancer cells. The experiment in a line: Anti-proliferative assay (cell-titre luminescent), MDA-MB-231. As to conditions: Homo sapiens; MDA-MB-231, 72 hours, luminescence. How it is done:
as §1

In experiment [4] the test system is SK-Mel-28 melanoma cells. The experiment in a line: Anti-proliferative assay (cell-titre luminescent), SK-Mel-28. The settings on record: Homo sapiens; SK-Mel-28, 72 hours, luminescence. How it is done:
as §1

Experiment [5] deals with SK-N-SH neuroblastoma cells. The experiment in a line: Anti-proliferative assay (cell-titre luminescent), SK-N-SH. As to conditions: Homo sapiens, 72 hours, luminescence. How it is done: as §1
The subject of experiment [6] is A549 lung (NSLC) cells. As to the kind of experiment: Anti-proliferative assay (cell-titre luminescent), A549. As to conditions: Homo sapiens; A549, 72 hours, luminescence. As to the method:
as §1

Experiment [7] deals with CaCo2 colorectal cancer cells. As to the kind of experiment: Anti-proliferative assay (cell-titre luminescent), CaCo2. As to conditions: Homo sapiens, Caco-2; CaCo2, 72 hours, luminescence. How it is done: as §1

Structures are written as SMILES.

The term IC50 denotes the concentration that inhibits the measured activity by half. A low value points to inhibition by little substance.

In the case of `COc1ccc2c(c1)c(/C=C/C(=O)N1CCN(CCc3ccc(F)cc3)CC1)c(C)n2CCCN1CCN(C)CC1` [Compound 2029, (E)-1-(4-(4-fluorophenethyl)piperazin-1-yl)-3-(5-methoxy-2-methyl-1-(3-(4-methylpiperazin-1-yl)propyl)-1H-indol-3-yl)prop-2-en-1-one], the IC50 was 4.2 µM in experiment [1]; 2.9 µM in experiment [2]; 3.3 µM in experiment [3]; 5.7 µM in experiment [4]; 2.8 µM in experiment [5]; 4.5 µM in experiment [6]. In experiment [7], this compound registered a 50% inhibitory concentration (IC50) of 4.4 µM.
For the compound `COc1ccc(CCN2CCN(C(=O)/C=C/c3c(C)n(CCCN4CCN(C)CC4)c4ccc(OC)cc34)CC2)cc1` [Compound 2030, (E)-3-(5-methoxy-2-methyl-1-(3-(4-methylpiperazin-1-yl)propyl)-1H-indol-3-yl)-1-(4-(4-methoxyphenethyl)piperazin-1-yl)prop-2-en-1-one], the IC50 in experiment [1] was determined as 7.9 µM; in experiment [2] it was 4 µM; in experiment [3], 4.3 µM; in experiment [4], 3.4 µM; in experiment [5], 3.6 µM; in experiment [6] it was 7.9 µM. This compound yielded a half-inhibitory concentration (IC50) in experiment [7] of 5.4 µM.
For `COc1ccc2c(c1)c(/C=C/C(=O)N1CCN(CCc3ccc4c(c3)OCO4)CC1)c(C)n2CCCN1CCN(C)CC1` [Compound 2031, (E)-1-(4-(2-(benzo[d][1,3]dioxol-5-yl)ethyl)piperazin-1-yl)-3-(5-methoxy-2-methyl-1-(3-(4-methylpiperazin-1-yl)propyl)-1H-indol-3-yl)prop-2-en-1-one], the half-maximal inhibitory concentration (IC50) in experiment [1] amounted to 6.2 µM; in experiment [2], 2.1 µM; in experiment [3], 5.2 µM; in experiment [4], 3.9 µM; in experiment [5], 3.7 µM; in experiment [6] it was 4.2 µM. Besides, the IC50 in experiment [7] is 3.7 µM.
In the case of `COc1ccc2c(c1)c(/C=C/C(=O)N1CCN(CCc3cccc(F)c3)CC1)c(C)n2CCCN1CCN(C)CC1` [Compound 2032, (E)-1-(4-(3-fluorophenethyl)piperazin-1-yl)-3-(5-methoxy-2-methyl-1-(3-(4-methylpiperazin-1-yl)propyl)-1H-indol-3-yl)prop-2-en-1-one], the 50% inhibitory concentration (IC50) stood at 7.7 µM in experiment [1]; 6.8 µM in experiment [2]; 4.9 µM in experiment [3]; 4.3 µM in experiment [4]; 4.7 µM in experiment [5]; 9 µM in experiment [6]. The 50% inhibitory concentration (IC50) in experiment [7] was determined as 5.6 µM.
In the case of `COc1cccc(CCN2CCN(C(=O)/C=C/c3c(C)n(CCCN4CCN(C)CC4)c4ccc(OC)cc34)CC2)c1` [Compound 2033, (E)-3-(5-methoxy-2-methyl-1-(3-(4-methylpiperazin-1-yl)propyl)-1H-indol-3-yl)-1-(4-(3-methoxyphenethyl)piperazin-1-yl)prop-2-en-1-one], the IC50 in experiment [1] was 18.6 µM; in experiment [2], 6.8 µM; in experiment [3], 4.5 µM; in experiment [4], 4.2 µM; in experiment [5], 3.3 µM; in experiment [6], 10.8 µM. Also, in experiment [7], the midpoint of inhibition, the IC50, lay at 4.2 µM.
With `COc1ccc2c(c1)c(/C=C/C(=O)N1CCN(CCc3ccccc3)CC1)c(C)n2CCCN1CCN(C)CC1` [Compound 2034, (E)-3-(5-methoxy-2-methyl-1-(3-(4-methylpiperazin-1-yl)propyl)-1H-indol-3-yl)-1-(4-phenethylpiperazin-1-yl)prop-2-en-1-one], the 50% inhibitory concentration (IC50) in experiment [1] amounted to 17.2 µM; in experiment [2], 11.5 µM; in experiment [3], 13.7 µM; in experiment [4], 16.2 µM; in experiment [5] it was 10.8 µM; in experiment [6], 51.3 µM. The compound further registered an IC50 in experiment [7] of 8.1 µM.
Take `CCOc1ccc2c(c1)c(/C=C/C(=O)N1CCN(CCc3ccc(F)cc3)CC1)c(C)n2CCCN(C)C` [Compound 2035, (E)-3-(1-(3-(dimethylamino)propyl)-5-ethoxy-2-methyl-1H-indol-3-yl)-1-(4-(4-fluorophenethyl)piperazin-1-yl)prop-2-en-1-one]: the IC50 in experiment [1] is 6.2 µM; in experiment [2], 5.6 µM; in experiment [3], 3 µM; in experiment [4], 3.2 µM; in experiment [5], 3.3 µM; in experiment [6], 8.3 µM. Further, the IC50 in experiment [7] came to 5.1 µM.
As for `CCOc1ccc2c(c1)c(/C=C/C(=O)N1CCN(CCc3ccc(F)cc3)CC1)c(C)n2CCCN(CC)CC` [Compound 2036, (E)-3-(1-(3-(diethylamino)propyl)-5-ethoxy-2-methyl-1H-indol-3-yl)-1-(4-(4-fluorophenethyl)piperazin-1-yl)prop-2-en-1-one], the IC50 in experiment [1] was found to be 4.7 µM; in experiment [2], 4.9 µM; in experiment [3], 4.4 µM; in experiment [4] it was 3.2 µM; in experiment [5], 1.5 µM; in experiment [6], 4.3 µM. Further, in experiment [7], the 50% inhibitory concentration (IC50) was found to be 5.1 µM.
Turning to `CCOc1ccc2c(c1)c(/C=C/C(=O)N1CCN(CCc3ccc(F)cc3)CC1)c(C)n2CCCN1CCN(C)CC1` [Compound 2037, (E)-3-(5-ethoxy-2-methyl-1-(3-(4-methylpiperazin-1-yl)propyl)-1H-indol-3-yl)-1-(4-(4-fluorophenethyl)piperazin-1-yl)prop-2-en-1-one], the 50% inhibitory concentration (IC50) in experiment [1] is 5 µM; in experiment [2] it was 8.7 µM; in experiment [3], 5 µM; in experiment [4], 2.7 µM; in experiment [5], 3.1 µM; in experiment [6] it was 6.6 µM. In addition, in experiment [7], the half-maximal inhibitory concentration (IC50) was 4.8 µM.
Regarding `Cc1c(C(=O)N2CCN(CCc3ccc(F)cc3)CC2)c2ccccc2n1CCCN(C)C` [Compound 2038, (1-(3-(dimethylamino)propyl)-2-methyl-1H-indol-3-yl)(4-(4-fluorophenethyl)piperazin-1-yl)methanone], the IC50 in experiment [1], in experiment [2], in experiment [3], in experiment [4], in experiment [5] and in experiment [6] was over 30 µM throughout. This compound came in with an IC50 in experiment [7] of over 30 µM.
Regarding `COc1ccc(CCN2CCN(C(=O)c3c(C)n(CCCN(C)C)c4ccccc34)CC2)cc1` [Compound 2039, (1-(3-(dimethylamino)propyl)-2-methyl-1H-indol-3-yl)(4-(4-methoxyphenethyl)piperazin-1-yl)methanone], the IC50 in experiment [1] was 72.6 µM; in experiment [2] it was 7.6 µM; in experiment [3], 16.6 µM; in experiment [4], 11 µM; in experiment [5], 12.6 µM; in experiment [6] it was 44 µM. For the same compound, in experiment [7], the IC50 turned out to be 4.8 µM.
Consider `Cc1c(C(=O)N2CCN(CCc3ccc4c(c3)OCO4)CC2)c2ccccc2n1CCCN(C)C` [Compound 2040, (4-(2-(benzo[d][1,3]dioxol-5-yl)ethyl)piperazin-1-yl)(1-(3-(dimethylamino)propyl)-2-methyl-1H-indol-3-yl)methanone], for which the IC50 in experiment [1] is over 30 µM; in experiment [2] it was over 30 µM; in experiment [3] it was over 30 µM; in experiment [4], 16.4 µM; in experiment [5], 26.4 µM; in experiment [6], over 30 µM. Also, the half-maximal inhibitory concentration (IC50) in experiment [7] is over 30 µM.
Consider `Cc1c(C(=O)N2CCN(CCc3cccc(F)c3)CC2)c2ccccc2n1CCCN(C)C` [Compound 2041], for which the IC50 in experiment [1] is over 30 µM; in experiment [2], over 30 µM; in experiment [3], over 30 µM; in experiment [4], 17.1 µM; in experiment [5], 13.2 µM; in experiment [6] it was over 30 µM. In experiment [7], this compound yielded a concentration for half-maximal inhibition (IC50) of over 30 µM.
On to `COc1cccc(CCN2CCN(C(=O)c3c(C)n(CCCN(C)C)c4ccccc34)CC2)c1` [Compound 2042, (1-(3-(dimethylamino)propyl)-2-methyl-1H-indol-3-yl)(4-(3-methoxyphenethyl)piperazin-1-yl)methanone], for which the IC50 in experiment [1], in experiment [2], in experiment [3], in experiment [4], in experiment [5] and in experiment [6] was over 30 µM in each case. The compound further had a concentration for half-maximal inhibition (IC50) in experiment [7] of over 30 µM.
Take `Cc1c(C(=O)N2CCN(CCc3ccccc3)CC2)c2ccccc2n1CCCN(C)C` [Compound 2043, (1-(3-(dimethylamino)propyl)-2-methyl-1H-indol-3-yl)(4-phenethylpiperazin-1-yl)methanone]: the half-maximal inhibitory concentration (IC50) was over 30 µM in experiment [1]; over 30 µM in experiment [2]; over 30 µM in experiment [3]; 17.2 µM in experiment [4]; 17.4 µM in experiment [5]; over 30 µM in experiment [6]. The half-inhibitory concentration (IC50) in experiment [7] was over 30 µM.
Regarding `COc1ccc2c(c1)c(C(=O)N1CCN(CCc3ccc(F)cc3)CC1)c(C)n2CCCN(C)C` [Compound 2044, (1-(3-(dimethylamino)propyl)-5-methoxy-2-methyl-1H-indol-3-yl)(4-(4-fluorophenethyl)piperazin-1-yl)methanone], the half-inhibitory concentration (IC50) in experiment [1] is 10.1 µM; in experiment [2], 11 µM; in experiment [3], 20.4 µM; in experiment [4], 6.6 µM; in experiment [5], 6.6 µM; in experiment [6] it was 12.2 µM. For the same compound, the 50% inhibitory concentration (IC50) in experiment [7] stood at 11.9 µM.

Values taken from patent publication US20170157135A1 (Novogen Limited, priority 2013, published 2017).
